How the values were obtained:
KRAS-driven lung tumor = assay: Tumor growth in xenograft model; assay type: in vivo
Description: The in vivo efficacy of Compound 1 in the context of mutant KRAS was next assessed. Cells were injected into nude mice, and the tumors were allowed to grow to about 60 mm^3 in size and treated daily with Compound 1 for 14-21 days. […] At the day of harvest, the net tumor mass was determined and the average tumor weight of the Compound 1 treatment group was 89% less than the average tumor weight of the control group. […] The effect of Compound 1 treatment were further examined on KRAS-mediated RAF, MEK/ERK, and PI3K/AKT cascades in protein extracts derived from vehicle- and Compound 1-treated tumors.

[1] = tested on: KRAS downstream signaling proteins in wild type KRAS; assay: Downstream signaling proteins, wild type KRAS (protein and gene expression analysis); assay type: cell-based

## CCCCc1ncc(C(=O)C2CC=C(C(N)=O)N2)cc1C(=O)OCC (stereo not drawn) [Compound 1]
KRAS-driven lung tumor; immunohistochemistry
  apoptotic cells by cleaved caspase-3 staining in tumors: prominent increase of apoptotic cells
  cell proliferation by Ki-67 staining in tumors: large reduction in cell proliferation
KRAS-driven lung tumor; nude mice (n=6) after treatment
  body weight loss or apparent toxicity: no significant body weight loss or apparent toxicity
KRAS-driven lung tumor; nude mice xenograft, suppression starting at day 9
  tumor growth suppression compared to vehicle treated controls: significant suppression from day 10 to day 14
KRAS-driven lung tumor; nude mice, treated daily for 14-21 days, day of harvest
  average tumor weight less than the control group: 89%
KRAS-driven lung tumor; treated vs vehicle tumors
  CRAF, ERK, and AKT phosphorylation in tumor protein extracts: significant suppression
[1]
  expression of KRAS downstream signaling proteins MEK, RAF and PI3K: has not altered the expression
[1]; control 1.42 ± 0.069
  pERK level: 1.46 ± 0.23
[1]; control 1.52 ± 0.025
  pCRAF level: 1.42 ± 0.25
[1]; control 1.85 ± 0.32
  pP13K level: 1.62 ± 0.63
[1]; control 1.89 ± 0.63
  pAKt level: 1.72 ± 0.14
[1]; control 1.96 ± 0.22
  pMEK level: 1.85 ± 0.32

Reference: US20230202981A1, “NOVEL SMALL MOLECULES FOR TARGETED DEGRADATION OF UNTARGETABLE KRAS IN CANCER THERAPY” (Pillai Universal LLC, priority 2020, published 2023)
